The structures appear in SMILES notation.

For this test, the system named is TNFα secretion from LPS stimulated frozen Peripheral Blood Mononuclear Cells (PBMC). Put plainly: inhibition of TNFα secretion from LPS stimulated human PBMC (hPBMC assay). The format is cell-based. The following applies: LPS 1 μg/mL, overnight incubation, TNFα by HTRF. The method, then:
Activity of the compounds was investigated using human peripheral blood mononuclear cells (hPBMC). This assay was designed to measure the inhibition of the TNFα secretion from LPS stimulated frozen Peripheral Blood Mononuclear Cells (PBMC) isolated from human blood. TNFα levels were measured using HTRF® Human TNFα kit (Cisbio #62TNFPEC) which is a rapid and quantitative sandwich immunoassay based on TR-FRET technology.
Frozen PBMC were quickly thawed, resuspended in culture medium (RPMI 10% inactivated FBS) and viable cells were seeded in 96-well plates (50,000 cells/well). […] After overnight incubation at 37° C., 10 μL of cell supernatant were mixed with 5 μL of each tagged anti-TNFα specific antibody as recommended by the supplier. After 2 hours of incubation at room temperature, the HTRF® signals were measured using a microplate reader (wavelengths: excitation=337 nm, first emission=620 nm, second emission=665 nm).
For orientation: Time-resolved FRET reads energy transfer from a long-lived donor to a nearby acceptor.
As a reminder, the IC50 is the concentration that inhibits the measured activity by half. Lower therefore signals greater potency. The compound `Cc1cc(COc2ccc(S(=O)(=O)NC3(C(=O)NO)CN(C(=O)OC(C)(C)C)C3)cc2)c2ccccc2n1` [Example 14, Tert-butyl 3-(hydroxycarbamoyl)-3-((4-((2-methylquinolin-4-yl)methoxy)phenyl)sulfonamido)azetidine-1-carboxylate] came in with an IC50 of under 50 nM.

For `CC(=O)N1CC(NS(=O)(=O)c2ccc(OCc3cc(C)nc4ccccc34)cc2)(C(=O)NO)C1` [Example 8, 1-acetyl-N-hydroxy-3-((4-((2-methylquinolin-4-yl)methoxy)phenyl)sulfonamido) azetidine-3-carboxamide], the IC50 is under 50 nM.

In turn, `Cc1cc(COc2ccc(S(=O)(=O)NC3(CC(=O)NO)CN(C(=O)C4CC4)C3)cc2)c2ccccc2n1` [Example 4c, 2-(1-(cyclopropanecarbonyl)-3-((4-((2-methylquinolin-4-yl)methoxy)phenyl)sulfonamido)azetidin-3-yl)-N-hydroxyacetamide] had an IC50 of under 50 nM.

Regarding `Cc1cc(COc2ccc(S(=O)(=O)NC3(C(=O)NO)CN(C(=O)CC4CC4)C3)cc2)c2ccccc2n1` [Example 26c, 1-(2-cyclopropylacetyl)-N-hydroxy-3-((4-((2-methylquinolin-4-yl)methoxy)phenyl)sulfonamido)azetidine-3-carboxamide], the IC50 was under 50 nM.

Take `Cc1cc(COc2ccc(S(=O)(=O)NC3(CC(=O)NO)CN(C(=O)C4CCCCC4)C3)cc2)c2ccccc2n1` [Example 4j, 2-(1-(cyclohexanecarbonyl)-3-((4-((2-methylquinolin-4-yl)methoxy)phenyl)sulfonamido)azetidin-3-yl)-N-hydroxyacetamide]: the IC50 was under 50 nM.

As for `Cc1cc(COc2ccc(S(=O)(=O)NC3(CC(=O)NO)CN(C(=O)N4CCN(C(C)C)CC4)C3)cc2)c2ccccc2n1` [Example 28a, N-hydroxy-2-(1-(4-isopropylpiperazine-1-carbonyl)-3-((4-((2-methylquinolin-4-yl)methoxy)phenyl)sulfonamido)azetidin-3-yl)acetamide], the IC50 is under 50 nM.

The compound `CC(=O)N1CC(CC(=O)NO)(NS(=O)(=O)c2ccc(OCc3cc(C)nc4ccccc34)cc2)C1` [Example 1, 2-(1-acetyl-3-((4-((2-methylquinolin-4-yl)methoxy)phenyl)sulfonamido)azetidin-3-yl)-N-hydroxyacetamide] yielded an IC50 of under 50 nM.

In turn, `Cc1cc(COc2ccc(S(=O)(=O)NC3(C(=O)NO)CN(C(=O)CC(C)(C)C)C3)cc2)c2ccccc2n1` [Example 15, 1-(3,3-dimethylbutanoyl)-N-hydroxy-3-((4-((2-methylquinolin-4-yl)methoxy)phenyl)sulfonamido)azetidine-3-carboxamide] displayed an IC50 of 50 to 100 nM.

`CC(=O)N1CC(CC(=O)NO)(NS(=O)(=O)c2ccc(OCc3cc(C)nc4c(C)cccc34)cc2)C1` [Example 24, 2-(1-acetyl-3-((4-((2,8-dimethylquinolin-4-yl)methoxy)phenyl)sulfonamido)azetidin-3-yl)-N-hydroxyacetamide] showed an IC50 of under 50 nM.

For the compound `Cc1cc(COc2ccc(S(=O)(=O)N(C)C3(C(=O)NO)CN(C(=O)OC(C)(C)C)C3)cc2)c2ccccc2n1` [Example 20, Tert-butyl 3-(hydroxycarbamoyl)-3-((N-methyl-4-((2-methylquinolin-4-yl)methoxy)phenyl)sulfonamido)azetidine-1-carboxylate], the IC50 is under 50 nM.

Turning to `C=CCOC(=O)N1CC(NS(=O)(=O)c2ccc(OCc3cc(C)nc4ccccc34)cc2)(C(=O)NO)C1` [Example 17, Allyl 3-(hydroxycarbamoyl)-3-((4-((2-methylquinolin-4-yl)methoxy)phenyl)sulfonamido)azetidine-1-carboxylate], the IC50 was under 50 nM.

`Cc1cc(COc2ccc(S(=O)(=O)NC3(C(=O)NO)CN(C(=O)CC(C)C)C3)cc2)c2cccc(F)c2n1` [Example 29, 3-((4-((8-fluoro-2-methylquinolin-4-yl)methoxy)phenyl)sulfonamido)-N-hydroxy-1-(3-methylbutanoyl)azetidine-3-carboxamide] gave an IC50 of 100 to 500 nM.

As to `Cc1cc(COc2ccc(S(=O)(=O)NC3(CC(=O)NO)CN(C(=O)CC4CCC4)C3)cc2)c2ccccc2n1` [Example 13, 2-(1-(2-cyclobutylacetyl)-3-((4-((2-methylquinolin-4-yl)methoxy)phenyl)sulfonamido)azetidin-3-yl)-N-hydroxyacetamide], the IC50 was under 50 nM.

Compound `CO[C@H]1C[C@@H](C(=O)N2CC(NS(=O)(=O)c3ccc(OCc4cc(C)nc5ccccc45)cc3)(C(=O)NO)C2)C1` [Example 26b, N-hydroxy-1-((1s,3s)-3-methoxycyclobutane-1-carbonyl)-3-((4-((2-methylquinolin-4-yl)methoxy)phenyl)sulfonamido)azetidine-3-carboxamide] registered an IC50 of under 50 nM.

The compound `CCN(C1(C(=O)NO)CN(C(=O)C(C)C)C1)S(=O)(=O)c1ccc(OCc2cc(C)nc3ccccc23)cc1` [Example 21a, 3-((N-ethyl-4-((2-methylquinolin-4-yl)methoxy)phenyl)sulfonamido)-N-hydroxy-1-isobutyrylazetidine-3-carboxamide] gave an IC50 of under 50 nM.

The compound `Cc1cc(COc2ccc(S(=O)(=O)NC3(C(=O)NO)CN(C(=O)C4CCC4)C3)cc2)c2ccccc2n1` [Example 7e, 1-(cyclobutanecarbonyl)-N-hydroxy-3-((4-((2-methylquinolin-4-yl)methoxy)phenyl)sulfonamido)azetidine-3-carboxamide] showed an IC50 of under 50 nM.

In turn, `CCCC(=O)N1CC(NS(=O)(=O)c2ccc(OCc3cc(C)nc4ccccc34)cc2)(C(=O)NO)C1` [Example 7h, 1-butyryl-N-hydroxy-3-((4-((2-methylquinolin-4-yl)methoxy)phenyl)sulfonamido)azetidine-3-carboxamide] gave an IC50 of under 50 nM.

Take `Cc1cc(COc2ccc(S(=O)(=O)N(C)C3(C(=O)NO)CN(C(=O)C(C)C)C3)cc2)c2ccccc2n1` [Example 19a, N-hydroxy-1-isobutyryl-3-((N-methyl-4-((2-methylquinolin-4-yl)methoxy)phenyl)sulfonamido)azetidine-3-carboxamide]: the IC50 was under 50 nM.

The compound `Cc1cc(COc2ccc(S(=O)(=O)NC3(CC(=O)NO)CN(C(=O)N4CCN(C)CC4)C3)cc2)c2cccc(C)c2n1` [Example 31, 2-(3-((4-((2,8-dimethylquinolin-4-yl)methoxy)phenyl)sulfonamido)-1-(4-methylpiperazine-1-carbonyl)azetidin-3-yl)-N-hydroxyacetamide] gave an IC50 of 50 to 100 nM.

In turn, `Cc1cc(COc2ccc(S(=O)(=O)NC3(CC(=O)NO)CN(C(=O)N4CCOCC4)C3)cc2)c2ccccc2n1` [Example 25, N-hydroxy-2-(3-((4-((2-methylquinolin-4-yl)methoxy)phenyl)sulfonamido)-1-(morpholine-4-carbonyl)azetidin-3-yl)acetamide] returned an IC50 of under 50 nM.

Regarding `COCC(=O)N1CC(CC(=O)NO)(NS(=O)(=O)c2ccc(OCc3cc(C)nc4ccccc34)cc2)C1` [Example 4f, N-hydroxy-2-(1-(2-methoxyacetyl)-3-((4-((2-methylquinolin-4-yl)methoxy)phenyl)sulfonamido)azetidin-3-yl)acetamide], the IC50 was under 50 nM.

The compound `CC(=O)N1CC(CC(=O)NO)(NS(=O)(=O)c2ccc(OCc3cc(C)nc4c(F)cccc34)cc2)C1` [Example 6, 2-(1-acetyl-3-((4-((8-fluoro-2-methylquinolin-4-yl)methoxy)phenyl)sulfonamido)azetidin-3-yl)-N-hydroxyacetamide] had an IC50 of 50 to 100 nM.

(Values after US10556883B2, “Benzenesulfonamide compounds, method for synthesizing same, and use thereof in medicine and cosmetics” (GALDERMA RESEARCH & DEVELOPMENT, priority 2016, dated 2020).)
